Measurements reported in article PMC4464473, “Synthesis of multivalent carbohydrate mimetics with aminopolyol end groups and their evaluation as L-selectin inhibitors” (Beilstein Journal of Organic Chemistry, 2015).

Target: T1, L-selectin (Homo sapiens, UniProt P14151)
T1 construct: gene SELL
T1 sequence (P14151 39-372): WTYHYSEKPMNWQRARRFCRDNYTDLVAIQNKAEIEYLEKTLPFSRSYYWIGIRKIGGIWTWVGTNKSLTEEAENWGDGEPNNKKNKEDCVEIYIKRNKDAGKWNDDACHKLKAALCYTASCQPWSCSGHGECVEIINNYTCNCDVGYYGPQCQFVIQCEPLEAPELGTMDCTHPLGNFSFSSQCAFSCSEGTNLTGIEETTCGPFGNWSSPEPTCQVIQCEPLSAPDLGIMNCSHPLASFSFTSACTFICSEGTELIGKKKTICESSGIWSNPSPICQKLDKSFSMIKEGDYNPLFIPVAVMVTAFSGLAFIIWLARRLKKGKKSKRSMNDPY
Test: competitive SPR binding assay

| IC50 [µM] | SMILES |
| --- | --- |
| 1 | O=C(NC(COS(=O)(=O)O)COS(=O)(=O)O)c1ccc(C(=O)NC(COS(=O)(=O)O)COS(=O)(=O)O)cc1 [compound 32, O-sulfated divalent amide 32] |
| 2 | CC1(C)O[C@H](COS(=O)(=O)O)[C@H](NC(=O)c2ccc(-c3cc(-c4ccc(C(=O)N[C@@H]5[C@@H](OS(=O)(=O)O)[C@H](COS(=O)(=O)O)C(C)(C)O[C@@H]5COS(=O)(=O)O)cc4)cc(-c4ccc(C(=O)N[C@@H]5[C@@H](OS(=O)(=O)O)[C@H](COS(=O)(=O)O)C(C)(C)O[C@@H]5COS(=O)(=O)O)cc4)c3)cc2)[C@@H](OS(=O)(=O)O)[C@@H]1COS(=O)(=O)O [compound 34, O-sulfated trivalent amide 34] |
